Like-named read-outs stand apart in the source and are kept apart here. *1 amine or outer side, *2 acyl side, *3 side chain or, on linkers, in order; H or OH if unused. Where a SMILES comes first, the peptide text is derived from it. Bridges are numbered along the chain shown (N, C = ends). S(p-C6F4)2 = Fc1c(F)c([*:1])c(F)c(F)c1Sc1c(F)c(F)c([*:2])c(F)c1F; X1 = O=C(C=NOCCCCCCOc1cc(C[*:2])cc(C[*:3])c1)[*:1]; X2 = O=C(C=NOCc1cc(C[*:2])cc(C[*:3])c1)[*:1]; mXylylene = c1cc(C[*:1])cc(C[*:2])c1
Key:
[1] = crosslinker bond
[2] = Proteolytic stability in Pronase; details: Streptomyces griseus, Pronase (protease mixture) in PBS, pH 7.4
Description: (§1) In a 600 L Eppendorf tube, we combined 196 L PBS (pH 7.4), 2 L of corresponding peptide
(§2) solution (from 10 mM stock) and 2 L of 0.1 mg/mL PronaseTM. The mixture was vortexed and
(§3) incubated at 37 °C. At indicated time points, 10 L of the solution was sampled, quenched with
(§4) 190 L of 50% aq. CH3CN and maintained at 4 °C until analysis by LCMS.

TYK-nu-NODAL cells = format: cell-based; details: human, 72 h, 10 µM
Description: 3.9. General protocol P19 Cell Culture
P19 Cell were obtained from ATCC cell bank and culture in Alpha Minimum Essential Medium with ribonucleotide and […] with 7.5% bovine calf serum and 2.5% fetal bovine serum at 37 °C with 5% CO2 supplementation.
3.10. Inhibition of pSMAD assay with P19 Cell […]
TYK-nu ovarian cancer cells were obtained from JCRB cell bank and cultured in Eagle’s minimal essential medium with 10 % fetal calf serum (Gibco/Thermo Fisher; Waltham, Massachusetts, USA) at 37 °C with 5% CO2 supplementation. To express the constitutive NODAL, a plasmid vector for human NODAL open reading frame (not including the stop codon) was cloned into pCMV6-Entry vector in frame with a tandem MYCDYK (FLAG) tag (Origene Cat. # RC211302). […]
Cells were seeded in three 96 wells plates with 600 cells/well or 6000 cells/well and grow in full media with G418 at 100 μg/mL O/N. The next day the media was changed to contain 19d peptide (10 µM, 1 µM and 0.1 µM) and without G418. Cells viability was measured every 24 hours with CellTiter-Glo® Luminescent Cell Viability Assay (Promega Cat. # G7572) over the course of 72

in vitro [3] = format: in vitro ADME; details: mouse, serum
Description: 4. Proteolytic Stability Methods
4.1. Protocol for measurement of proteolytic stability in cell assay: […]
precipitate any proteins.
4.2. Protocol for measurement of proteolytic stability in PronaseTM :
The mixture was vortexed and […]
peptide solution (from 10 mM stock). The mixture was vortexed and incubated at 37 °C. At […]
precipitate the serum protein.

[4] = tested on: rhNODAL-induced phosphorylation of SMAD2 in P19 cells; test: Inhibition of pSMAD assay with P19 cells (western blot of p-SMAD2); format: cell-based; details: control inhibitor, concentration not given, rhNODAL 100 ng mL^−1, 1 hour
Text: 3.6. Processing of Illumina data
The Gzip compressed FASTQ files were downloaded from BaseSpace™ Sequence Hub. The files were converted into tables of DNA sequences and their counts per experiment. Briefly, FASTQ files were parsed based on unique multiplexing barcodes within the reads discarding any reads that contained a low-quality score. Mapping the forward (F) and reverse […] barcoding regions, mapping of F and R priming regions allowing no more than one base substitution each and F-R read alignment allowing no mismatches between F and R reads yielded DNA sequences located between the priming regions. The files with DNA reads, raw counts, and mapped peptide modifications were uploaded to http://48hd.cloud/ server. Each experiment has a unique alphanumeric name (e.g., 20181108-16TSooPA-YW) and unique static URL:
Un- http://48hd.cloud/file/23 https://48hd.cloud/file/2 https://48hd.cloud/file/2 […]
TSL-6 https://48hd.cloud/file/2 https://48hd.cloud/file/2 https://48hd.cloud/file/2 […]
Elution https://48hd.cloud/file/2 https://48hd.cloud/file/2 https://48hd.cloud/file/2 […]
Amplificati https://48hd.cloud/file/2 https://48hd.cloud/file/2 https://48hd.cloud/file/2 […]
3.7. General protocol for protein extraction
All samples in the protein extraction protocol were done on ice. […]

in vitro [5] = details: Streptomyces griseus, isolated enzyme pronase, pH 7.4
Description: as §1, §2, §3, §4

Pronase™ = test: Proteolytic stability in Pronase; details: 5 hours, 37 °C
Description: as §1, §2, §3, §4

For H-SPCAKGMNYC-NH2 + DBMB, the ring closure, isolated yield ([1]; DBMB) was 25%.
In the case of `CC(C)C[C@@H]1NC(=O)[C@H](Cc2ccc(O)cc2)NC(=O)[C@@H](NC(=O)[C@H](CC(=O)O)NC(=O)[C@H](Cc2c[nH]cn2)NC(=O)[C@@H](N)CO)CSCc2cccc(c2)CSC[C@@H](C(N)=O)NC(=O)[C@H](CCC(=O)O)NC1=O` [6g] (H-SHDCYLEC-NH2; linker 4-8 via mXylylene), the remaining at 5 h, 100 µM [2] is reported as < 1%.
Compound H-SYCKADC-NH2 + DBMB has a ring closure, isolated yield ([1]; DBMB) of 47%.
H-SWDYRECYLEC-NH2 + DBMB showed a ring closure, isolated yield ([1]; DBMB) of 12%.
For `C[C@@H]1NC(=O)[C@H](CCCNC(=N)N)NC(=O)[C@H](CCCCN)NC(=O)[C@@H]2CSCc3cc(cc(c3)OCCCCCCON=CC(=O)N[C@@H](Cc3ccc(O)cc3)C(=O)N2)CSC[C@@H](C(N)=O)NC(=O)[C@H](CC(N)=O)NC(=O)[C@H](CCCCN)NC(=O)[C@H](Cc2c[nH]cn2)NC1=O` [19b, TSL-[S]Y[C]KRAHKN[C]] (YCKRAHKNC-NH2; linker N-2-9 via X1), the “viability of TYK-nu-NODAL cells compared to untreated TYK-nu-NODAL cells” value (TYK-nu-NODAL cells) was 23% and the remaining at 72 h (in vitro [3]) was 53%.
Work on H-SPCKGPSATC-NH2 + DBMB yielded a ring closure, isolated yield ([1]; DBMB) of 10%.
With `NC(=O)c1ccc(-c2nc(-c3ccc4c(c3)OCO4)c(-c3ccccn3)[nH]2)cc1` [SB431542] the “inhibition of rhNODAL-induced phosphorylation of SMAD2” value [4] was “inhibited”.
For H-SWDYRECYLEC-NH2 + TSL-6, the ring closure, isolated yield ([1]; TSL-6) was 42%.
`CC(C)C[C@@H]1NC(=O)[C@H](Cc2ccc(O)cc2)NC(=O)[C@@H]2CSCc3cc(cc(c3)CSC[C@@H](C(N)=O)NC(=O)[C@H](CCC(=O)O)NC1=O)CON=CC(=O)N[C@@H](Cc1c[nH]cn1)C(=O)N[C@@H](CC(=O)O)C(=O)N2` [6c] (HDCYLEC-NH2; linker N-3-7 via X2) gave a remaining at 5 h, 100 µM [2] of 83 ± 6.9%.
`CC(C)C[C@@H]1NC(=O)[C@H](Cc2ccc(O)cc2)NC(=O)[C@@H]2CSCc3cc(cc(c3)OCCCCCCON=CC(=O)N[C@@H](Cc3c[nH]c4ccccc34)C(=O)N[C@@H](CC(=O)O)C(=O)N[C@@H](Cc3ccc(O)cc3)C(=O)N[C@@H](CCCNC(=N)N)C(=O)N[C@@H](CCC(=O)O)C(=O)N2)CSC[C@@H](C(N)=O)NC(=O)[C@H](CCC(=O)O)NC1=O` [TSL-6-SWDYRECYLEC] (WDYRECYLEC-NH2; linker N-6-10 via X1) gave a remaining at 5 h, 100 µM (in vitro [5]) of 68 ± 14%.
H-SHCVWWDC-NH2 + DBMB gave a ring closure, isolated yield ([1]; DBMB) of 16%.
H-SYCKPFC-NH2 + TSL-1 showed a ring closure, isolated yield ([1]; TSL-1) of 41%.
Work on H-SICRFFCGGG-NH2 + DBMB yielded a ring closure, isolated yield ([1]; DBMB) of 46%.
In the case of H-STCQGECGGG-NH2 + PFS, the ring closure, isolated yield ([1]; PFS) is reported as 31%.
In the case of `CC[C@H](C)[C@H](NC(=O)[C@@H](N)CO)C(=O)N[C@H]1CSc2c(F)c(F)c(c(F)c2F)Sc2c(F)c(F)c(c(F)c2F)SC[C@@H](C(=O)NCC(=O)NCC(=O)NCC(N)=O)NC(=O)[C@H](Cc2ccccc2)NC(=O)[C@H](Cc2ccccc2)NC(=O)[C@H](CCCNC(=N)N)NC1=O` [PFS-SICRFFCGGG] (H-SICRFFCGGG-NH2; linker 3-7 via S(p-C6F4)2), the “stability in Pronase™ (in words)” value (Pronase™) is reported as “lower stability than bicycle TSL-3-SICRFFCGGG”.
With H-SHDCYLEC-NH2 + DBMB the ring closure, isolated yield ([1]; DBMB) was 27%.
Work on Ac-CSWPARCLHQDLC-NH2 + TBMB yielded a ring closure, isolated yield ([1]; TBMB) of 33%.
With `CC(C)C[C@@H]1NC(=O)[C@H](Cc2ccc(O)cc2)NC(=O)[C@@H](NC(=O)[C@H](CC(=O)O)NC(=O)[C@H](Cc2c[nH]cn2)NC(=O)[C@@H](N)CO)CSSC[C@@H](C(N)=O)NC(=O)[C@H](CCC(=O)O)NC1=O` [6a] (H-SHDCYLEC-NH2; disulfide 4-8) the remaining at 5 h, 100 µM [2] was < 1%.
For H-STCQGECGGG-NH2 + DBMB, the ring closure, isolated yield ([1]; DBMB) was 19%.
Work on H-SHCDYYC-NH2 + DBMB yielded a ring closure, isolated yield ([1]; DBMB) of 47%.
Work on H-SYCKRAHKNC-NH2 + TSL-6 yielded a ring closure, isolated yield ([1]; TSL-6) of 14%.
For H-SICRFFCGGG-NH2 + PFS, the ring closure, isolated yield ([1]; PFS) was 40%.
With H-SPCKAGTGQC-NH2 + DBMB the ring closure, isolated yield ([1]; DBMB) was 12%.
H-SFCDWYGC-NH2 + DBMB gave a ring closure, isolated yield ([1]; DBMB) of 10%.
Compound H-SYCPYSGTNC-NH2 + TSL-6 has a ring closure, isolated yield ([1]; TSL-6) of 32%.
H-SYCKPFC-NH2 + DBMB gave a ring closure, isolated yield ([1]; DBMB) of 62%.
H-SYCKRAHKNC-NH2 + DBMB gave a ring closure, isolated yield ([1]; DBMB) of 32%.
For H-SWDYRECYLEC-NH2 + TSL-1, the ring closure, isolated yield ([1]; TSL-1) was 54%.
For H-SQCKRAHAEC-NH2 + DBMB, the ring closure, isolated yield ([1]; DBMB) was 10%.
H-SYCKADC-NH2 + TSL-1 showed a ring closure, isolated yield ([1]; TSL-1) of 37%.
For H-SPCKGRHHNC-NH2 + DBMB, the ring closure, isolated yield ([1]; DBMB) was 63%.
In the case of `CC(C)C[C@@H]1NC(=O)[C@H](Cc2ccc(O)cc2)NC(=O)[C@@H]2CSCc3cc(cc(c3)CSC[C@@H](C(N)=O)NC(=O)[C@H](CCC(=O)O)NC1=O)CON=CC(=O)N[C@@H](Cc1c[nH]c3ccccc13)C(=O)N[C@@H](CC(=O)O)C(=O)N[C@@H](Cc1ccc(O)cc1)C(=O)N[C@@H](CCCNC(=N)N)C(=O)N[C@@H](CCC(=O)O)C(=O)N2` [TSL-1-SWDYRECYLEC] (WDYRECYLEC-NH2; linker N-6-10 via X2), the remaining at 5 h, 100 µM [2] is reported as 82 ± 13%.
Compound H-SSWPARCLHQDLC-NH2 + DBMB has a ring closure, isolated yield ([1]; DBMB) of 46%.
Compound Ac-CNTWNPWCPWDAPLCam-NH2 + TBMB has a ring closure, isolated yield ([1]; TBMB) of 38%.

Source: article PMC8294009, “Genetically-encoded discovery of proteolytically stable bicyclic inhibitors for morphogen NODAL” (Chemical Science, 2021)
